What was measured:
[1] = collision cross section (TIMS, N2 drift gas) of the primary ion; higher = larger gas-phase ion size
[2] = reversed-phase LC retention time (C18, 15 min MeOH gradient); higher = more hydrophobic / later elution
[3] = ionization mode: ESI+, ion species: [M+H]+
[4] = ionization mode: ESI-, ion species: [M-H]-
[5] = ionization mode: ESI+, ion species: [M]+

In the case of `CC(=O)[C@@]1(O)CC[C@H]2[C@@H]3C[C@H](C)C4=CC(=O)CC[C@]4(C)[C@H]3CC[C@@]21C` [Medroxyprogesterone], the collision cross section [1, 3] is reported as 187.34 Å², the collision cross section [1, 4] is reported as 188.11 Å² and the “reversed-phase LC retention time” value [2, 3] is reported as 15.1 min. For the same compound, the “reversed-phase LC retention time” value [2, 4] was 15.6 min.

With `O=C(Nc1ccc(F)cc1)c1cccc(Oc2cccc(C(F)(F)F)c2)n1` [Picolinafen] the collision cross section [1, 3] was 189.81 Å², the collision cross section [1, 4] was 186.89 Å² and the “reversed-phase LC retention time” value [2, 3] was 16.8 min. The “reversed-phase LC retention time” value [2, 4] was 17.2 min.

In the case of `NC(=O)N1c2ccccc2CC(=O)c2ccccc21` [Oxcarbazepine], the collision cross section [1, 3] is reported as 155.46 Å² and the “reversed-phase LC retention time” value [2, 3] is reported as 10.7 min.

With `CNC(=O)/C(=N/OC)c1ccccc1COc1cc(C)ccc1C` [Dimoxystrobin] the collision cross section [1, 3] was 178.04 Å² and the “reversed-phase LC retention time” value [2, 3] was 15.3 min.

For `CC(C)(C)CC(C)(C)c1ccc(O)cc1` [4-tert-Octylphenol], the collision cross section [1, 4] was 156.39 Å² and the “reversed-phase LC retention time” value [2, 4] was 17.3 min.

For `C[C@]12CCC(=O)C=C1CC[C@@H]1[C@@H]2[C@@H](O)C[C@@]2(C)[C@H]1CC[C@]2(O)C(=O)CO` [Hydrocortisone], the collision cross section [1, 3] was 189.25 Å² and the “reversed-phase LC retention time” value [2, 3] was 12.4 min.

With `COc1cnc(OC)n2nc(NS(=O)(=O)c3c(OCC(F)F)cccc3C(F)(F)F)nc12` [Penoxsulam] the collision cross section [1, 3] was 196.63 Å² and the “reversed-phase LC retention time” value [2, 3] was 12.3 min.

With `Oc1ccc(Cl)cc1Cc1ccccc1` [Chlorophene] the collision cross section [1, 4] was 147.97 Å² and the “reversed-phase LC retention time” value [2, 4] was 15.9 min.

For `Cc1c(Cl)cccc1Nc1ccccc1C(=O)O` [Tolfenamic acid], the collision cross section [1, 3] was 156.85 Å², the collision cross section [1, 4] was 158.38 Å² and the “reversed-phase LC retention time” value [2, 3] was 16.6 min. The “reversed-phase LC retention time” value [2, 4] was 14.2 min.

With `COc1cc2ccc(=O)oc2cc1O` [Scopoletin] the collision cross section [1, 4] was 133.5 Å² and the “reversed-phase LC retention time” value [2, 4] was 7.44 min.

With `CCOCCN(C(=O)CCl)C(=C(C)C)c1ccccc1` [Pethoxamid] the collision cross section [1, 3] was 166.72 Å² and the “reversed-phase LC retention time” value [2, 3] was 14.9 min.

With `CC[C@H](C)[C@H]1O[C@]2(C=C[C@@H]1C)C[C@@H]1C[C@@H](C/C=C(\C)[C@@H](O[C@H]3C[C@H](OC)[C@@H](O[C@H]4C[C@H](OC)[C@@H](NC)[C@H](C)O4)[C@H](C)O3)[C@@H](C)/C=C/C=C3\CO[C@@H]4[C@H](O)C(C)=C[C@@H](C(=O)O1)[C@]34O)O2` [Emamectin B1a] the collision cross section [1, 3] was 283.49 Å², the collision cross section [1, 4] was 296.31 Å² and the “reversed-phase LC retention time” value [2, 3] was 17 min. The “reversed-phase LC retention time” value [2, 4] was 18.9 min.

For `Nc1ccc(/C=C/c2ccc(N)cc2S(=O)(=O)O)c(S(=O)(=O)O)c1` [4,4'-Diaminostilbene-2,2'-disulfonic acid], the collision cross section [1, 4] was 178.47 Å² and the “reversed-phase LC retention time” value [2, 4] was 0.97 min.

For `COc1cc(C[C@H]2COC(=O)[C@@H]2Cc2ccc(O)c(OC)c2)ccc1O` [Matairesinol], the collision cross section [1, 3] was 191.29 Å², the collision cross section [1, 4] was 176.96 Å² and the “reversed-phase LC retention time” value [2, 3] was 11.4 min. For the same compound, the “reversed-phase LC retention time” value [2, 4] was 11.6 min.

In the case of `CCCCCOC(=O)c1ccccc1C(=O)OCCCCC` [Di-n-pentylphthalate], the collision cross section [1, 3] is reported as 182.77 Å² and the “reversed-phase LC retention time” value [2, 3] is reported as 17.4 min.

In the case of `CCCCCCCCCCCC[N+](C)(C)Cc1ccccc1` [Benzyldimethyldodecylammonium], the collision cross section [1, 5] is reported as 196.05 Å² and the “reversed-phase LC retention time” value [2, 5] is reported as 16 min.

In the case of `NC12CC3CC(CC(C3)C1)C2` [Amantadine], the collision cross section [1, 3] is reported as 138.51 Å² and the “reversed-phase LC retention time” value [2, 3] is reported as 8.82 min.

In the case of `CO/C=C(/C(=O)OC)c1ccccc1COc1cccc(C(F)(F)F)n1` [Picoxystrobin], the collision cross section [1, 3] is reported as 174.95 Å² and the “reversed-phase LC retention time” value [2, 3] is reported as 15.2 min.

With `Oc1c(Cl)cc(-c2ccc(Cl)cc2)cc1Cl` [4-Hydroxy-3,4',5-trichlorobiphenyl] the collision cross section [1, 4] was 154.17 Å² and the “reversed-phase LC retention time” value [2, 4] was 15.5 min.

With `CCCCCCCCCCCCCC[N+](C)(C)[O-]` [N,N-Dimethyltetradecylamine-N-oxide] the collision cross section [1, 3] was 184.89 Å² and the “reversed-phase LC retention time” value [2, 3] was 16.8 min.

In the case of `NC(=O)N1c2ccccc2CC(O)c2ccccc21` (stereo not drawn) [10,11-Dihydro-10-hydroxycarbamazepine], the collision cross section [1, 3] is reported as 154.89 Å² and the “reversed-phase LC retention time” value [2, 3] is reported as 10.7 min.

For `CCCCc1nc(Cl)c(CO)n1Cc1ccc(-c2ccccc2-c2nn[nH]n2)cc1` [Losartan], the collision cross section [1, 3] was 201.04 Å², the collision cross section [1, 4] was 204 Å² and the “reversed-phase LC retention time” value [2, 3] was 13.3 min. For the same compound, the “reversed-phase LC retention time” value [2, 4] was 13 min.

In the case of `CCCCc1ncc(C(=O)O)n1Cc1ccc(C(=O)O)cc1` [Eprosartan acid], the collision cross section [1, 4] is reported as 178.16 Å² and the “reversed-phase LC retention time” value [2, 4] is reported as 7.27 min.

For `C[C@]12CCC(=O)C=C1CC[C@@H]1[C@@H]2C(=O)C[C@@]2(C)[C@H]1CC[C@]2(O)C(=O)CO` [Cortisone], the collision cross section [1, 3] was 181.22 Å² and the “reversed-phase LC retention time” value [2, 3] was 16.9 min.

In the case of `O=C(O)C(F)(F)C(F)(F)C(F)(F)C(F)(F)C(F)(F)C(F)(F)C(F)(F)C(F)(F)C(F)(F)C(F)(F)F` [Perfluoroundecanoic acid], the collision cross section [1, 4] is reported as 182.71 Å² and the “reversed-phase LC retention time” value [2, 4] is reported as 16.5 min.

For `NC(=O)Nc1ccc(Cl)c(Cl)c1` [3,4-Dichlorophenylurea], the collision cross section [1, 3] was 146.21 Å², the collision cross section [1, 4] was 134.15 Å² and the “reversed-phase LC retention time” value [2, 3] was 12.2 min. The “reversed-phase LC retention time” value [2, 4] was 12.4 min.

For `CC(C)(C)c1ccc(CSc2cnn(C(C)(C)C)c(=O)c2Cl)cc1` [Pyridaben], the collision cross section [1, 3] was 193.46 Å² and the “reversed-phase LC retention time” value [2, 3] was 17.9 min.

For `CC1(C)[C@@H](O)CC[C@]2(C)[C@H]3C(=O)C=C4[C@@H]5C[C@@](C)(C(=O)O)CC[C@]5(C)CC[C@@]4(C)[C@]3(C)CC[C@@H]12` [Enoxolone], the collision cross section [1, 3] was 216.71 Å², the collision cross section [1, 4] was 224.72 Å² and the “reversed-phase LC retention time” value [2, 3] was 17.5 min. For the same compound, the “reversed-phase LC retention time” value [2, 4] was 16.6 min.

For `COc1ccc2c3c1O[C@H]1C[C@@H](O)C=C[C@@]31CCN(C)C2` [Galantamine], the collision cross section [1, 3] was 169.25 Å² and the “reversed-phase LC retention time” value [2, 3] was 5.92 min.

With `CCN(CCO)c1ccc(N=Nc2sc3cc(OC)ccc3[n+]2C)cc1` [Basic Blue 41] the collision cross section [1, 5] was 195.62 Å² and the “reversed-phase LC retention time” value [2, 5] was 12.1 min.

With `CC(c1ccc(O)cc1)c1ccc(O)cc1` [Bisphenol E] the collision cross section [1, 4] was 156.4 Å² and the “reversed-phase LC retention time” value [2, 4] was 12.7 min.

With `O=c1[nH]c2ccccc2s1` [2-Hydroxybenzothiazole] the collision cross section [1, 3] was 126.56 Å², the collision cross section [1, 4] was 122.14 Å² and the “reversed-phase LC retention time” value [2, 3] was 10.5 min. For the same compound, the “reversed-phase LC retention time” value [2, 4] was 10.6 min.

In the case of `CC(C)NCC(O)COc1cccc2[nH]ccc12` (stereo not drawn) [Pindolol], the collision cross section [1, 3] is reported as 159 Å² and the “reversed-phase LC retention time” value [2, 3] is reported as 7.36 min.

With `O=S(=O)(O)CCNC1CCCCC1` [2-(Cyclohexylamino)-ethansulfonic acid] the collision cross section [1, 3] was 148.57 Å², the collision cross section [1, 4] was 148.72 Å² and the “reversed-phase LC retention time” value [2, 3] was 5.19 min. The “reversed-phase LC retention time” value [2, 4] was 6.1 min.

In the case of `C[C@@H]1C[C@H]2[C@@H]3CCC4=CC(=O)C=C[C@]4(C)[C@@]3(Cl)[C@@H](O)C[C@]2(C)[C@@]1(OC(=O)c1ccco1)C(=O)CCl` [Mometasone fuorate], the collision cross section [1, 3] is reported as 217.59 Å², the collision cross section [1, 4] is reported as 214.51 Å² and the “reversed-phase LC retention time” value [2, 3] is reported as 15.2 min. The “reversed-phase LC retention time” value [2, 4] was 15.7 min.

With `CC(C)CCCCCCOC(=O)C1CCCCC1C(=O)OCCCCCCC(C)C` (stereo not drawn) [DINCH] the collision cross section [1, 3] was 228.01 Å² and the “reversed-phase LC retention time” value [2, 3] was 20.1 min.

In the case of `CCCCCCCC/C=C\CCCCCCCCCCCC(N)=O` [Erucamide], the collision cross section [1, 3] is reported as 200.01 Å² and the “reversed-phase LC retention time” value [2, 3] is reported as 19.6 min.

For `COc1cccc([C@@]2(O)CCCC[C@@H]2CN(C)C)c1` [Tramadol], the collision cross section [1, 3] was 160.98 Å² and the “reversed-phase LC retention time” value [2, 3] was 9.25 min.

For `CO/N=C(/C1=NOCCO1)c1ccccc1Oc1ncnc(Oc2ccccc2Cl)c1F` [Fluoxastrobin], the collision cross section [1, 3] was 205.37 Å² and the “reversed-phase LC retention time” value [2, 3] was 14.8 min.

With `CC(C)N(C(=O)COc1nnc(C(F)(F)F)s1)c1ccc(F)cc1` [Flufenacet] the collision cross section [1, 3] was 178.11 Å² and the “reversed-phase LC retention time” value [2, 3] was 14.9 min.

In the case of `C[C@H](O)C(=O)Nc1c(I)c(C(=O)NC(CO)CO)c(I)c(C(=O)NC(CO)CO)c1I` [Iopamidol], the collision cross section [1, 3] is reported as 216.64 Å², the collision cross section [1, 4] is reported as 206.33 Å² and the “reversed-phase LC retention time” value [2, 3] is reported as 5.52 min. For the same compound, the “reversed-phase LC retention time” value [2, 4] was 3.71 min.

For `CC(C)NCC(O)COc1ccc(CC(N)=O)cc1` (stereo not drawn) [Atenolol], the collision cross section [1, 3] was 157.6 Å² and the “reversed-phase LC retention time” value [2, 3] was 6.24 min.
